The values that follow come from patent publication US8912137B2, “Method for increasing natriuresis or diuresis by isoforms of brain natriuretic peptide” (Mayo Foundation for Medical Education and Research, priority 2003, dated 2014).

The conditions of data set [1]: cited from earlier work.
The subject of data set [2] is Human umbilical vascular endothelial cells (HUVEC). Kind of data set: Stimulation of intracellular cGMP production in HUVEC (BIOTRACK cGMP enzyme immunoassay). The data set is classed as cell-based. The settings on record: 30 minutes incubation, 0.5 mM IBXM. The procedure:
Human umbilical vascular endothelial cells (HUVEC) were cultured in 96-well plates using endothelial cell medium (EGM™-2) supplemented with the components provided by the EGM™-2 BulletKit (CC-3162) (Clonetics, East Rutherford, N.J.). After cells reached about 80% confluency, the plates were washed with phosphate-buffered saline ([…], SEQ ID NO:35) dissolved in EBM-2 that contained supplements and 0.5 mM IBXM. After incubation, the culture medium was aspirated, and the cells were assayed for intracellular cGMP production using the BIOTRACK cGMP enzyme immunoassay kit (Amersham Pharmacia Biotech). The amount of cGMP was calculated according the standard curve that was generated from parallel reactions within the same experiment.

Data set [3] deals with normal dogs. Briefly: Intrarenal arterial infusion in normal dog. It is filed as in vivo. As to conditions: intrarenal arterial infusion 0.03 ng/kg/min. The procedure:
To determine the physiological effects of BNP-3, the synthesized peptide was delivered via a direct intrarenal arterial infusion (0.03 ng/kg/min) in normal dogs. Physiologic assessment was performed following a 15 minute run-in period. […] Both of these increases normalized during a washout period.

Data set [4] has as its system carotid arteries from New Zealand White Rabbits. Kind of data set: Vasoactivity in organ chamber, phenylephrine pre-contracted carotid artery rings. The settings on record: rabbit carotid rings. The procedure: Vasoactivity was assessed in an organ chamber using carotid arteries from New Zealand White Rabbits. Following euthanization, carotids were immediately immersed in cold Krebs solution. Arterial rings ˜4 mm in length (n=6) were dissected, connected to isometric force displacement transducers, and suspended in organ chambers filled with 25 mL of Krebs (94% O2, 6% CO2). Rings were equilibrated for 1 hour at 37° C. and then incrementally stretched to 3 g. Viability and maximum contraction was determined with 60 mM KCl. After 3 washes with Krebs solution and further equilibration, arteries were pre-contracted with phenylephrine in a titrated fashion to achieve ˜80% stable maximal contraction. To study vasoactivity, BNP3 (final cone 10^−10 to 10^−7 M) or vehicle was added to the organ bath in a cumulative manner. Following three further washes and equilibration, the arteries were re-contracted and viability was confirmed by assessment of endothelium independent responses with incremental doses of sodium nitroprusside (10^−9 to 10^−5 M), an exogenous NO donor.

In the case of “recombinant BNP: recombinant brain natriuretic peptide, 32 amino acid peptide with a ring structure (SEQ ID NO:16)”, in data set [1] (in vivo), the “effect on heart rate” value is reported as “no effect” and the pro-arrhythmic effect entry is recorded as “not pro-arrhythmic”. Moreover, in data set [1] (intravenous therapy), the cardiac index entry is reported as “increases”, the “pulmonary capillary wedge pressure” value is “significantly decreases” and the systemic vascular resistance result is recorded as “significantly decreases”.
In the case of “SPKMVQGSGCFGRKMDRISSSSGLGCKVVQKENQTFPPGFL (listed as Homo sapiens) [BNP3]”, the results for the cGMP in data set [2] (BNP3 10^−8 M), in data set [2] (BNP3 10^−9 M) and in data set [2] (BNP3 10^−10 M) were 26 fmol/well, 18 fmol/well and 1 fmol/well, respectively. For the same substance, in data set [3], the increased urinary flow is listed as 6-8 fold. Further, the “plasma cGMP” value in data set [3] is “elevation of plasma cGMP”. For the same substance, the “urinary excretion of sodium” value in data set [3] is recorded as “increased urinary excretion of sodium”. The “concentration at which vasorelaxation began” value in data set [4] (cumulative addition 10^−10 to 10^−7 M) is 10^−9 M. For the same substance, the values for the complete relaxation in data set [4] (dose 10^−7M) and in data set [4] (dose 10^−8M) were ~95% and ~60%, respectively.
